Key:
Assay in all cases: radiometric filter-binding kinase assay, Kinase HotSpot
Details in all cases: compound 0.5 µM; ATP 10 µM
[1] = target: ABL2 (human) (UniProt P42684)
[2] = target: ALK (human) (UniProt Q9UM73)
[3] = target: AURKB (human) (UniProt Q96GD4)
[4] = target: AURKC (human) (UniProt Q9UQB9)
[5] = target: CAMK2A (human) (UniProt Q9UQM7)
[6] = target: CAMKK1 (human) (UniProt Q8N5S9)
[7] = target: CDK7 CCNH MNAT1 (human) (UniProt P50613+P51948+P51946)
[8] = target: CLK2 (human) (UniProt P49760)
[9] = target: CSNK1G3 (human) (UniProt Q9Y6M4)
[10] = target: CSNK2A2 (human) (UniProt P19784)
[11] = target: DCLK2 (human) (UniProt Q8N568)
[12] = target: DDR2 (human) (UniProt Q16832)
[13] = target: DSTYK (human) (UniProt Q6XUX3)
[14] = target: DYRK1A (human) (UniProt Q13627)
[15] = target: EPHA1 (human) (UniProt P21709)
[16] = target: FGFR2 (human) (UniProt P21802)
[17] = target: FGR (human) (UniProt P09769)
[18] = target: FLT3 (human) (UniProt P36888)
[19] = target: HIPK2 (human) (UniProt Q9H2X6)
[20] = target: JAK2 JH1 JH2 (human) (UniProt O60674)
[21] = target: KIT (human) (UniProt P10721)
[22] = target: LTK (human) (UniProt P29376)
[23] = target: MAP2K2 (human) (UniProt P36507)
[24] = target: MAP3K14 (human) (UniProt Q99558)
[25] = target: MAPK9 (human) (UniProt P45984)
[26] = target: MST1R (human) (UniProt Q04912)
[27] = target: MYLK (human) (UniProt Q15746)
[28] = target: OXSR1 (human) (UniProt O95747)
[29] = target: PASK (human) (UniProt Q96RG2)
[30] = target: PLK2 (human) (UniProt Q9NYY3)
[31] = target: PRKACA (human) (UniProt P17612)
[32] = target: PRKCE (human) (UniProt Q02156)
[33] = target: PRKD1 (human) (UniProt Q15139)
[34] = target: SIK2 (human) (UniProt Q9H0K1)
[35] = target: SLK (human) (UniProt Q9H2G2)
[36] = target: SRPK2 (human) (UniProt P78362)
[37] = target: STK16 (human) (UniProt O75716)
[38] = target: STK24 (human) (UniProt Q9Y6E0)
[39] = target: TAOK2 (human) (UniProt Q9UL54)
[40] = target: TAOK3 (human) (UniProt Q9H2K8)
[41] = target: TNK2 (human) (UniProt Q07912)
[42] = target: TYRO3 (human) (UniProt Q06418)

Sequence of CDK7 CCNH MNAT1 (human) (P50613 whole entry, looked up): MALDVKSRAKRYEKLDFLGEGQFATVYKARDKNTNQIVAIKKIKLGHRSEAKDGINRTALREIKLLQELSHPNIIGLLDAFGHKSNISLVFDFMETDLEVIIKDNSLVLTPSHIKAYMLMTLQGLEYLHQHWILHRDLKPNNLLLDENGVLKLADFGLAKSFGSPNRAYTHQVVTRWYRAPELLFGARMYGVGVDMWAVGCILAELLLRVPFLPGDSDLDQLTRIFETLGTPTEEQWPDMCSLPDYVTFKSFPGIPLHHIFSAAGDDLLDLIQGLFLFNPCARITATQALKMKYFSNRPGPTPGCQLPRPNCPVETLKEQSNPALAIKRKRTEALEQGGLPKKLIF
Sequence of CDK7 CCNH MNAT1 (human) (P51946 whole entry, looked up): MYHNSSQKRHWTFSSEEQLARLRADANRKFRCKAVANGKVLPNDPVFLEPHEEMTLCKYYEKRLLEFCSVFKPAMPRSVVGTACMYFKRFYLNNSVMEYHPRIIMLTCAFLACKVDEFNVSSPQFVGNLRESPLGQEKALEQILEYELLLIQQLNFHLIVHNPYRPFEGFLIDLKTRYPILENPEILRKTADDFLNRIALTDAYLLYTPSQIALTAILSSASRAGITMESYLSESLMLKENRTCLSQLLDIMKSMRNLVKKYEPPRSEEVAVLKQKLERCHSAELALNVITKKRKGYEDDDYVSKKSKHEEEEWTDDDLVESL
Sequence of CDK7 CCNH MNAT1 (human) (P51948 whole entry, looked up): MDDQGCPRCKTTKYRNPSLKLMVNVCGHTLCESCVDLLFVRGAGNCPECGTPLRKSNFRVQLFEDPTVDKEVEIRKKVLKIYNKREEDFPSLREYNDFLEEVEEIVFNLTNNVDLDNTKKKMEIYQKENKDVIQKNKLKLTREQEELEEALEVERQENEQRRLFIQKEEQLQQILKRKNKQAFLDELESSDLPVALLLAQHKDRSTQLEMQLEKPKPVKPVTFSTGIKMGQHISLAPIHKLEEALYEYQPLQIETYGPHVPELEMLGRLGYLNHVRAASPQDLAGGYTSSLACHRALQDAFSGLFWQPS
Sequence of MYLK (human) (Q15746 whole entry, looked up): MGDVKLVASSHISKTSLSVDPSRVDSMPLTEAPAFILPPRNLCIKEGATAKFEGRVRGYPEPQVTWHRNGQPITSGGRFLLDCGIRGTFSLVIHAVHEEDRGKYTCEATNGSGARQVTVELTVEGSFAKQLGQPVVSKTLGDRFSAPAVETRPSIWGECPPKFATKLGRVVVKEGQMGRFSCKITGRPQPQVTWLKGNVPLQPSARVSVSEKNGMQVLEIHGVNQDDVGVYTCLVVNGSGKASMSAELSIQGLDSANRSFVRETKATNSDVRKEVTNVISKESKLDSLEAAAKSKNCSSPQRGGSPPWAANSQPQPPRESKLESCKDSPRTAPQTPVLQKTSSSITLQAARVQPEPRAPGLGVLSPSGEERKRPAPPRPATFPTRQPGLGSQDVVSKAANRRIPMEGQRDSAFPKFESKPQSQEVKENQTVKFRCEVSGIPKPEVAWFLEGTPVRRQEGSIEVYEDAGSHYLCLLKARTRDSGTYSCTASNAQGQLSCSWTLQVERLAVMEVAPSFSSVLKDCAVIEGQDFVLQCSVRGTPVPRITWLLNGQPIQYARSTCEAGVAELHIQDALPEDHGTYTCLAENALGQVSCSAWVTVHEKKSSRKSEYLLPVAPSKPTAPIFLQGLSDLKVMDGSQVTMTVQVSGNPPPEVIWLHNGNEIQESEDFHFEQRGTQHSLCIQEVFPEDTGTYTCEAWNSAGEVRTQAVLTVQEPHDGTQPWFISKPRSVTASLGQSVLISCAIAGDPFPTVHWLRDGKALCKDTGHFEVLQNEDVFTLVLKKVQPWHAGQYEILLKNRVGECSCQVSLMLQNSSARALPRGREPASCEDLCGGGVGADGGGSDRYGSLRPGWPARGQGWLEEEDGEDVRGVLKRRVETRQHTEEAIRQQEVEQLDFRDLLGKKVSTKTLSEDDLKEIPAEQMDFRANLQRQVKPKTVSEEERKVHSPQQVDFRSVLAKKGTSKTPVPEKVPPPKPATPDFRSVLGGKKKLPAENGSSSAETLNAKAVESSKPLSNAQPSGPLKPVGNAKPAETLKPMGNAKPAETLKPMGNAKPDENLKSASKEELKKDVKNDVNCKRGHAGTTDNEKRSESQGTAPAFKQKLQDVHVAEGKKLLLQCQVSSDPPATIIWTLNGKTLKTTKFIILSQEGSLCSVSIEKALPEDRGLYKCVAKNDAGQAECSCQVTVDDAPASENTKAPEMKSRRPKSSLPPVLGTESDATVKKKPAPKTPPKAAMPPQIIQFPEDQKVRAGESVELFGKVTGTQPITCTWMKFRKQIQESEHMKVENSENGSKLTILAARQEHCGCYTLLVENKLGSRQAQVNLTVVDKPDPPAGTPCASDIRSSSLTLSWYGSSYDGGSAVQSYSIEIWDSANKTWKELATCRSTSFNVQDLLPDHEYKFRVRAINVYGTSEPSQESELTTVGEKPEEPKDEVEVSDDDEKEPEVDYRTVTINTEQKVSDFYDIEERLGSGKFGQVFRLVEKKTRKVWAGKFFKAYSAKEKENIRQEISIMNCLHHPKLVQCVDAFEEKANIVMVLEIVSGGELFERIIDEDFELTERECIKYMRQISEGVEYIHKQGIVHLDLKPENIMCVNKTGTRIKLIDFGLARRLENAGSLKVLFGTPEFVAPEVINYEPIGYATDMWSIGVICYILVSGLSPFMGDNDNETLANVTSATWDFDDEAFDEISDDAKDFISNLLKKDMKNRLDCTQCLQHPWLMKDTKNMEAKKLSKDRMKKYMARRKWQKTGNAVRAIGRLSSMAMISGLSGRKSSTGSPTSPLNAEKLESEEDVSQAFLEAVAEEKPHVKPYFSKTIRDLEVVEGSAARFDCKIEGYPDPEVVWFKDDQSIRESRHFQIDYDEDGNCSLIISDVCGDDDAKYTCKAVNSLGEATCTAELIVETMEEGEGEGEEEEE
Sequence of TAOK3 (human) (Q9H2K8 whole entry, looked up): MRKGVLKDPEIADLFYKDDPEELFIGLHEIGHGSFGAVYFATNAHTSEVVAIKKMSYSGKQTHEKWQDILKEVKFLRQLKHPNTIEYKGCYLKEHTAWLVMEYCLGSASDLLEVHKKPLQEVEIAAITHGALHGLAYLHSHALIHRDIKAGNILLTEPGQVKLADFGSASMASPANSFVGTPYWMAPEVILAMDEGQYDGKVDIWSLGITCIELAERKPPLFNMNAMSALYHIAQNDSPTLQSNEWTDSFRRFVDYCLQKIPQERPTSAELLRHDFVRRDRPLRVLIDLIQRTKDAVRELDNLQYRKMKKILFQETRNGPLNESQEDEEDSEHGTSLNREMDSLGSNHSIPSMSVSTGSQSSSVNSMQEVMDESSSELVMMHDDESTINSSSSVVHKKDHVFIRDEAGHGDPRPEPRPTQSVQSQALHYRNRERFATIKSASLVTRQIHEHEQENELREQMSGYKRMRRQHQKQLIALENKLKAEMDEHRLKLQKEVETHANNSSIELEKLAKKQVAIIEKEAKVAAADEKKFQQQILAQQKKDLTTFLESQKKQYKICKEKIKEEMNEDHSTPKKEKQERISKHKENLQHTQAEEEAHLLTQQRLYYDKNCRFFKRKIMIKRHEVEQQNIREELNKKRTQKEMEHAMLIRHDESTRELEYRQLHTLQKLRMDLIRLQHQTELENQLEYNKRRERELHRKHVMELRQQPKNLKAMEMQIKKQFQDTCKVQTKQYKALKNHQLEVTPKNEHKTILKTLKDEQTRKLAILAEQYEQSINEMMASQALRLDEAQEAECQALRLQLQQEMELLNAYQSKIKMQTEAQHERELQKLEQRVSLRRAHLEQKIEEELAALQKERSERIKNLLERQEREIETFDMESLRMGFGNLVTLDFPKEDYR
Sequence of CSNK2A2 (human) (P19784 whole entry, looked up): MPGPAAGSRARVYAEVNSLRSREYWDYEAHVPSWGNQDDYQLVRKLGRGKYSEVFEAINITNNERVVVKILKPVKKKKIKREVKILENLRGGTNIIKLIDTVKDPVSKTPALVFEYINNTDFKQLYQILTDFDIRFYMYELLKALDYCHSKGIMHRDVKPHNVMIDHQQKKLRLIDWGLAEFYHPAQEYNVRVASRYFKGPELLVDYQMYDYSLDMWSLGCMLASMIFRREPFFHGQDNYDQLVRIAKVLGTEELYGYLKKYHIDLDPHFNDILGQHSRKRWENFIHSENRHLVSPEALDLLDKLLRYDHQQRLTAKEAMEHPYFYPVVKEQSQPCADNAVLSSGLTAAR
Sequence of CAMKK1 (human) (Q8N5S9 whole entry, looked up): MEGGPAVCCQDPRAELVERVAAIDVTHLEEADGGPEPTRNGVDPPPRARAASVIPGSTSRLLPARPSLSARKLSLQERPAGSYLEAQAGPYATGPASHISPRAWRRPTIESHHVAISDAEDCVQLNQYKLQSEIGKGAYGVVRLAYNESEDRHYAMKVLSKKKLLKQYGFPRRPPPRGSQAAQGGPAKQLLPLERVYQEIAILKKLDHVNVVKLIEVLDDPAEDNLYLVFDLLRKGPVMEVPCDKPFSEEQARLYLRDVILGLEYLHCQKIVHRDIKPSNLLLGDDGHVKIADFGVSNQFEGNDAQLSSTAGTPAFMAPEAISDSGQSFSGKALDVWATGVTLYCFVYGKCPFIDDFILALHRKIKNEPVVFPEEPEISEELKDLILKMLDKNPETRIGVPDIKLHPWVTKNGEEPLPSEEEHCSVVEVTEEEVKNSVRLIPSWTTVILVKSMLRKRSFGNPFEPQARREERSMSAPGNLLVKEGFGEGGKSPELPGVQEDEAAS
Sequence of AURKB (human) (Q96GD4 whole entry, looked up): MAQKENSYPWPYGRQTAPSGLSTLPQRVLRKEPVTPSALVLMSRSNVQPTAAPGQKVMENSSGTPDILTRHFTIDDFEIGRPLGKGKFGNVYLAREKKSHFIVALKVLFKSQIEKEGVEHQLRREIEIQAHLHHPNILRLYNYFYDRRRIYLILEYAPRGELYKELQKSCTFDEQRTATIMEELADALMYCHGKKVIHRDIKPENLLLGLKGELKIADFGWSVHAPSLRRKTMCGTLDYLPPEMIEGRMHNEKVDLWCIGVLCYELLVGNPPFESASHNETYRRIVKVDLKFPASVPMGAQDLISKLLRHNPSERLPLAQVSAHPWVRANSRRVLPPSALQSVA

## Cc1nc(-c2ccccc2)c(-c2ccncc2)o1
[1]
  residual activity: 92.8%
[2]
  residual activity: 108%
[3]
  residual activity: 97.3%
[4]
  residual activity: 95.7%
[5]
  residual activity: 104%
[6]
  residual activity: 123%
[7]
  residual activity: 109%
[8]
  residual activity: 98.2%
[9]
  residual activity: 104%
[10]
  residual activity: 89.8%
[11]
  residual activity: 97%
[12]
  residual activity: 97.4%
[13]
  residual activity: 91%
[14]
  residual activity: 98.4%
[15]
  residual activity: 93.8%
[16]
  residual activity: 108%
[17]
  residual activity: 89.7%
[18]
  residual activity: 95.2%
[19]
  residual activity: 95.5%
[20]
  residual activity: 98.4%
[21]
  residual activity: 93.7%
[22]
  residual activity: 107%
[23]
  residual activity: 106%
[24]
  residual activity: 96.2%
[25]
  residual activity: 98.2%
[26]
  residual activity: 95.9%
[27]
  residual activity: 101%
[28]
  residual activity: 102%
[29]
  residual activity: 98.1%
[30]
  residual activity: 106%
[31]
  residual activity: 98.9%
[32]
  residual activity: 103%
[33]
  residual activity: 95.6%
[34]
  residual activity: 86.2%
[35]
  residual activity: 101%
[36]
  residual activity: 92.3%
[37]
  residual activity: 109%
[38]
  residual activity: 96.7%
[39]
  residual activity: 101%
[40]
  residual activity: 99%
[41]
  residual activity: 97.7%
[42]
  residual activity: 109%

## O=C(c1cc2cc(O)ccc2[nH]1)c1cc2cc(O)ccc2[nH]1
[1]
  residual activity: 27.2%
[2]
  residual activity: 97%
[3]
  residual activity: 24.2%
[4]
  residual activity: 83.2%
[5]
  residual activity: 74.5%
[6]
  residual activity: 63.3%
[7]
  residual activity: 93.5%
[8]
  residual activity: 105%
[9]
  residual activity: 77.2%
[10]
  residual activity: 78.8%
[11]
  residual activity: 88.4%
[12]
  residual activity: 95.7%
[13]
  residual activity: 95.5%
[14]
  residual activity: 103%
[15]
  residual activity: 81.1%
[16]
  residual activity: 98.5%
[17]
  residual activity: 12.7%
[18]
  residual activity: 3.53%
[19]
  residual activity: 102%
[20]
  residual activity: 95.6%
[21]
  residual activity: 45.6%
[22]
  residual activity: 91.6%
[23]
  residual activity: 98.8%
[24]
  residual activity: 77.1%
[25]
  residual activity: 116%
[26]
  residual activity: 90.4%
[27]
  residual activity: 91.4%
[28]
  residual activity: 105%
[29]
  residual activity: 78.7%
[30]
  residual activity: 102%
[31]
  residual activity: 107%
[32]
  residual activity: 119%
[33]
  residual activity: 58.5%
[34]
  residual activity: 78.3%
[35]
  residual activity: 78.6%
[36]
  residual activity: 97.1%
[37]
  residual activity: 54.6%
[38]
  residual activity: 70.4%
[39]
  residual activity: 99%
[40]
  residual activity: 66.6%
[41]
  residual activity: 90.6%
[42]
  residual activity: 76.4%

Reference: the kinase profiling compilation of Christmann-Franck et al. (2016)
